Reference: patent publication US20100010041A1, “DIFLUORINATED PIPERIDINES FOR TREATMENT OF ALZHEIMER'S DISEASE AND RELATED CONDITIONS” (priority 2006, published 2010)

Target: T1, γ-secretase (Homo sapiens, UniProt P49768)
T1 construct: Human SH-SY5Y neuroblastoma cells overexpressing the direct γ-secretase substrate SPA4CT; endogenous in cells; host or cells: human SH-SY5Y neuroblastoma cells (stably overexpressing the substrate SPA4CT, induced with sodium butyrate)
Experiment: Cell-Based γ-Secretase Assay (Aβ(40)/Aβ(42) in media of SH-SY5Y cells overexpressing SPA4CT)
Settings: Human SH-SY5Y neuroblastoma cells overexpressing SPA4CT; values given as ranges; read-out: IC50 values for Aβ(1-42) inhibition
Description: Cell-Based γ-Secretase Assay
Human SH-SY5Y neuroblastoma cells overexpressing the direct γ-secretase substrate SPA4CT were induced with sodium butyrate (10 mM) for 4 hours prior to plating. Cells were plated at 35,000 cells/well/100 μl in 96-well plates in phenol red-free MEM/10% FBS, 50 mM HEPES, 1% Glutamine and incubated for 2 hrs at 37° C., 5% CO2.
Compounds for testing were diluted into Me2SO to give a ten point dose-response curve. Typically 10 μl of these diluted compounds in Me2SO were further diluted into 182 μl dilution buffer (phenol red-free MEM/10% FBS, 50 mM HEPES, 1% Glutamine) and 10 μl of each dilution was added to the cells in 96-well plates (yielding a final Me2SO concentration of 0.5%). Appropriate vehicle and inhibitor controls were used to determine the window of the assay.
After incubation overnight at 37° C., 5% CO2, 10 μl and 50 μl media were transferred into a fresh Costar round-bottom 96-well plate for detection of Aβ(40) and Aβ(42) peptides, respectively. 40 μl Origen buffer (PBS, 2% BSA, 0.2% Tween-20) was added to the Aβ(40) wells followed by the addition of 25 μl the respective antibody premixes to the wells: • Aβ(40) premix: 1 μg/ml ruthenylated G2-10 antibody, 4 μg/ml biotinylated 4G8 antibody diluted in Origen buffer • Aβ(42) premix: 0.5 μg/ml ruthenylated G2-11 antibody, 4 μg/ml biotinylated 4G8 antibody diluted in Origen buffer
(Biotinylated 4G8 Antibody Supplied by Signet Pathology Ltd; G2-10 and G2-11 Antibodies Supplied by Chemicon)
After overnight incubation of the assay plates on a shaker at 4° C., the Origen M8 Analyser (Igen Inc.) was calibrated according to the manufacturer's instructions. 25 μl of streptavidin magnetic bead (Dynal) premix (400 μg/ml streptavidin beads/ml in Origen buffer) was added to the assay plates and incubated on a shaker for 15 minutes. 150 μl Origen buffer was added to each well and the plates were read on the Origen M8 Analyser according to the manufacturer's instructions.
Cell viability was measured in the corresponding cells after removal of the media for the Aβ assays by a colorimetric cell proliferation assay (CellTiter 96™ AQ assay, Promega) utilizing the bioreduction of MTS (Owen's reagent) to formazan according to the manufacturer's instructions. Briefly, 5 μl of 10×MTS/PES was added to the remaining 50 μl of media before returning to the incubator. The optical density was read at 495 nm after ˜4 hours.
LD50 and IC50 values for inhibition of Aβ(40) and Aβ(42) were calculated by nonlinear regression fit analysis using the appropriate software (eg. Excel fit). The total signal and the background were defined by the corresponding Me2SO and inhibitor controls.

| Compound | IC50 [µM] |
| --- | --- |
| CC(C)(C)C#C[C@H](CCCC(C)(C)C)N1CCC(F)(F)[C@H](CC(=O)O)[C@H]1c1ccc(C(F)(F)F)cc1 (relative stereo) [Example 17, {1-[1-(3,3-dimethylbut-1-yn-1-yl)-5,5-dimethylhexyl]-4,4-difluoro-2-[4-(trifluoromethyl)phenyl]piperidin-3-yl}acetic acid] | 1 to 1.5 |
| CC(C)(C)CCC(CCC(C)(C)C)N1CCC(F)(F)[C@H](CC(=O)O)[C@H]1c1ccc(C(F)(F)F)cc1 (relative stereo) [Example 15, {1-[1-(3,3-dimethylbutyl)-4,4-dimethylpentyl]-4,4-difluoro-2-[4-(trifluoromethyl)phenyl]piperidin-3-yl}acetic acid] | 1.5 to 2 |
| CC(C)(C)CC[C@H](c1ccc(C(F)(F)F)cc1)N1CCC(F)(F)[C@H](CC(=O)O)[C@H]1c1ccc(C(F)(F)F)cc1 (relative stereo) [Example 1, {1-{4,4-dimethyl-1-[4-(trifluoromethyl)phenyl]pentyl}-4,4-difluoro-2-[4-(trifluoromethyl)phenyl]piperidin-3-yl}acetic acid] | 1 to 1.5 |
| CC(C)(C)CC[C@H](CC(C)(C)C)N1CCC(F)(F)[C@H](CC(=O)O)[C@H]1c1ccc(C(F)(F)F)cc1 (relative stereo) [Example 11, {1-[1-(2,2-dimethylpropyl)-4,4-dimethylpentyl]-4,4-difluoro-2-[4-(trifluoromethyl)phenyl]-piperidin-3-yl}acetic acid] | 1.5 to 2 |
| CC(C)(C)C#CCN1[C@H](c2ccc(C(F)(F)F)cc2)[C@@H](CC(=O)O)C(F)(F)C[C@H]1c1ccc(C(F)(F)F)cc1 (relative stereo) [Example 23, {1-(4,4-dimethylpent-2-yn-1-yl)-4,4-difluoro-2,6-bis[4-(trifluoro-methyl)phenyl]piperidin-3-yl}acetic acid] | 2 to 3 |
| C=C(C)C#C[C@H](CCC(=C)C)N1CCC(F)(F)[C@H](CC(=O)O)[C@H]1c1ccc(C(F)(F)F)cc1 (relative stereo) [Example 7, {4,4-difluoro-1-[4-methyl-1-(3-methylbut-3-en-1-yl)pent-4-en-2-yn-1-yl]-2-[4-(trifluoromethyl)phenyl]piperidin-3-yl}acetic acid] | 1.5 to 2 |
| CC(C)(C)CC[C@H](CCC(F)(F)F)N1CCC(F)(F)[C@H](CC(=O)O)[C@H]1c1ccc(C(F)(F)F)cc1 (single isomer, unassigned) [Example 18, {1-[4,4-dimethyl-1-(3,3,3-trifluoropropyl)pentyl]-4,4-difluoro-2-[4-(trifluoromethyl)phenyl]piperidin-3-yl}acetic acid] | < 0.5 |

Results, then the molecule that gave them:

| IC50 [µM] | Compound |
| --- | --- |
| < 0.5 | CC(C)(C)/C=C\[C@H](CCC(F)(F)F)N1CCC(F)(F)[C@H](CC(=O)O)[C@H]1c1ccc(C(F)(F)F)cc1 (relative stereo) [Example 20, {1-[(2Z)-4,4-dimethyl-1-(3,3,3-trifluoropropyl)pent-2-en-1-yl]-4,4-difluoro-2-[4-(trifluoromethyl)phenyl]piperidin-3-yl}acetic acid] |
| 1 to 1.5 | CC(C)(C)CC[C@H](CCC(F)(F)F)N1CCC(F)(F)[C@H](CC(=O)O)[C@H]1c1ccc(C(F)(F)F)cc1 (single isomer, unassigned) [Example 22, {1-[4,4-dimethyl-1-(3,3,3-trifluoropropyl)pentyl]-4,4-difluoro-2-[4-(trifluoromethyl)phenyl]piperidin-3-yl}acetic acid] |
| 1 to 1.5 | CC(C)(C)CCCN1[C@H](c2ccc(C(F)(F)F)cc2)[C@@H](CC(=O)O)C(F)(F)C[C@H]1c1ccc(C(F)(F)F)cc1 (relative stereo) [Example 24, {1-(4,4-dimethylpentyl)-4,4-difluoro-2,6-bis[4-(trifluoromethyl)phenyl]piperidin-3-yl}acetic acid] |
| 1 to 1.5 | CC(C)(C)/C=C\[C@H](CCC(F)(F)F)N1CCC(F)(F)[C@H](CC(=O)O)[C@H]1c1ccc(C(F)(F)F)cc1 [Example 6, {1-[(2Z)-4,4-dimethyl-1-(3,3,3-trifluoropropyl)pent-2-en-1-yl]-4,4-difluoro-2-[4-(trifluoromethyl)phenyl]piperidin-3-yl}acetic acid] |
| 2 to 3 | CC(C)CC[C@H](c1ccc(C(F)(F)F)cc1)N1CCC(F)(F)[C@H](CC(=O)O)[C@H]1c1ccc(C(F)(F)F)cc1 (relative stereo) [Example 8, {4,4-difluoro-1-(4-methyl-1-[4-(trifluoromethyl)phenyl]pentyl}-2-[4-(trifluoromethyl)phenyl]piperidin-3-yl}acetic acid] |
| < 0.5 | CC(C)(C)C#C[C@H](CCC(F)(F)F)N1CCC(F)(F)[C@H](CC(=O)O)[C@H]1c1ccc(C(F)(F)F)cc1 (single isomer, unassigned) [Example 19, {1-[4,4-dimethyl-1-(3,3,3-trifluoropropyl)pent-2-yn-1-yl]-4,4-difluoro-2-[4-(trifluoromethyl)phenyl]piperidin-3-yl}acetic acid] |
| 1.5 to 2 | C=C(C)C#C[C@H](CCC(F)(F)F)N1CCC(F)(F)[C@H](CC(=O)O)[C@H]1c1ccc(C(F)(F)F)cc1 (relative stereo) [Example 2, {4,4-difluoro-1-[4-methyl-1-(3,3,3-trifluoropropyl)pent-4-en-2-yn-1-yl]-2-[4-(trifluoromethyl)phenyl]piperidin-3-yl}acetic acid] |
| 2 to 3 | CC(C)(C)C[C@@H](CCc1ccc(C(F)(F)F)cc1)N1CCC(F)(F)[C@H](CC(=O)O)[C@H]1c1ccc(C(F)(F)F)cc1 (relative stereo) [Example 14, {1-(3,3-dimethyl-1-{2-[4-(trifluoromethyl)phenyl]ethyl}butyl)-4,4-difluoro-2-[4-(trifluoromethyl)phenyl]piperidin-3-yl}acetic acid] |
| 2 to 3 | CC(C)(C)/C=C\[C@H](CC(C)(C)C)N1CCC(F)(F)[C@H](CC(=O)O)[C@H]1c1ccc(C(F)(F)F)cc1 (relative stereo) [Example 12, {1-[(2Z)-1-(2,2-dimethylpropyl)-4,4-dimethylpent-2-en-1-yl]-4,4-difluoro-2-[4-(trifluoromethyl)phenyl]piperidin-3-yl}acetic acid] |
